Experimental data from ChEMBL document CHEMBL1909046, “DrugMatrix in vitro pharmacology data”.

Columns and labels:
Cytochrome P450 2C9 = Cytochrome P450 2C9 (Homo sapiens, UniProt P11712)
Cytochrome P450 1A2 = target: T1, Cytochrome P450 1A2 (Homo sapiens, UniProt P05177)
T1 sequence (P05177 whole entry): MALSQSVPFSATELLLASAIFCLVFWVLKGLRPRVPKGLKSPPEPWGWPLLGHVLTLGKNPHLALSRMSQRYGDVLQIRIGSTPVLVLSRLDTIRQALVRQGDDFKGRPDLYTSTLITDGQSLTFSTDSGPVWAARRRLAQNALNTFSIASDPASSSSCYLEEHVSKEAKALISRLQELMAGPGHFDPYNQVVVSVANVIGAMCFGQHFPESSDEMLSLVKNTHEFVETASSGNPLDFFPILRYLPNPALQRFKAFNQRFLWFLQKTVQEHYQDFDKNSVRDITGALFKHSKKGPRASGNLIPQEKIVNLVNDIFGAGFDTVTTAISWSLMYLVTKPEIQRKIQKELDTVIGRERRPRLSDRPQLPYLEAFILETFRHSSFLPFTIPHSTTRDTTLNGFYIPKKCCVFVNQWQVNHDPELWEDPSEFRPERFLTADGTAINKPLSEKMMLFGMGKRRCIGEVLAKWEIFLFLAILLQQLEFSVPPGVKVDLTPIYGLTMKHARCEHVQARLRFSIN

Cytochrome P450 2C9, sequence (P11712 whole entry): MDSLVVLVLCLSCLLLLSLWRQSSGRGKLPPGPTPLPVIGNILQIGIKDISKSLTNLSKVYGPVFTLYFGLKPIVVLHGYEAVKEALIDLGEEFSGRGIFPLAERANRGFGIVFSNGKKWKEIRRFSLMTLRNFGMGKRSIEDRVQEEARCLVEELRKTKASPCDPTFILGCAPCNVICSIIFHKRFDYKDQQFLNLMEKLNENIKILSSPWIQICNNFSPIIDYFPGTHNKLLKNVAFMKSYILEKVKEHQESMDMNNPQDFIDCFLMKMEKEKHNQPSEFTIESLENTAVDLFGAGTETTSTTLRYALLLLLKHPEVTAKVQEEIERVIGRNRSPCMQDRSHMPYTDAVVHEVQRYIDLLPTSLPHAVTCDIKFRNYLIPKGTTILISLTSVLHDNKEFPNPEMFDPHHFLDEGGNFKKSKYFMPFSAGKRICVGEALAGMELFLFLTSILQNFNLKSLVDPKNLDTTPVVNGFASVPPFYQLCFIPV

Compound | IC50 (Cytochrome P450 2C9) [µM] | IC50 (Cytochrome P450 1A2) [µM]
O=C(c1ccccc1Cl)N1CCC(Cc2ccccc2)CC1 | 2 | 
COc1cc(CNC(=O)CCCC/C=C/C(C)C)ccc1O [CAPSAICIN] |  | 3
CC(=O)O[C@]1(C(C)=O)CC[C@H]2[C@@H]3C=C(C)C4=CC(=O)CC[C@]4(C)[C@H]3CC[C@@]21C [MEGESTROL ACETATE] | 10 | 
COc1ccc2cc(CCC(C)=O)ccc2c1 [NABUMETONE] |  | 5
